Here are results for nine compounds from paper PMC5766609 (Scientific Reports, 2018).

For experiment [1], the target named is T1, human glucagon receptor (GCGR) (Homo sapiens, UniProt P47871).
T1 construct: expressed in transfected cells; host or cells: CHO-JumpIn cells, stably transfected
Description: cAMP assay on CHO-JumpIn cells stably transfected with human glucagon receptor (HitHunter cAMP).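 On all read-outs here: peptides tested as 4-fold serial dilutions starting from a 2 µM solution, cells exposed 1 hr at RT in darkness, cAMP quantified against a cAMP standard curve.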 It counts as cell-based. The following applies: for EC50: Table 2, cAMP accumulation, CHO-JumpIn cells with human GCGR, buffer PBS, 0.1% BSA, 100 μM RO 20-1724, 20% serum, 1 hr at RT, value ± spread, read-out: EC50 GCGR; for activation of the receptors (in words): both receptors (GCGR and GLP1R) not activated. In general terms: Cyclic AMP is a second messenger, typically raised through Gs and lowered through Gi signalling.

Experiment [2] deals with T2, human GLP-1 receptor (GLP1R) (Homo sapiens, UniProt P43220).
T2 construct: expressed in transfected cells; host or cells: CHO-JumpIn cells, stably transfected
T2 sequence (P43220 24-463): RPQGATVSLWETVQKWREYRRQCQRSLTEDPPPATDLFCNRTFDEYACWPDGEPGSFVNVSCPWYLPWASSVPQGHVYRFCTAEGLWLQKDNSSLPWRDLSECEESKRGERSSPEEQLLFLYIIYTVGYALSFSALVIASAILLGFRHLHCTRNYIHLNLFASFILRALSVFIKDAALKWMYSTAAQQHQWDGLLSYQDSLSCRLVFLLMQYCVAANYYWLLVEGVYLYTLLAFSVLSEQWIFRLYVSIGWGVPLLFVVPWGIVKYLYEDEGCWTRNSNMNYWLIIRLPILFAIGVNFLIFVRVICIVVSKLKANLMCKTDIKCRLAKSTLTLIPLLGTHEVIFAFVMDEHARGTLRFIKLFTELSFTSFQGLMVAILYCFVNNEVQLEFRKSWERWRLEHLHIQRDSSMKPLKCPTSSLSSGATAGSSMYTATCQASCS
In words: cAMP assay on CHO-JumpIn cells stably transfected with human GLP-1 receptor (HitHunter cAMP).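 Further: peptides tested as 4-fold serial dilution series, cells exposed 1 hr at RT in the dark, cAMP quantified against a cAMP standard calibration curve.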 It counts as cell-based. The settings on record: Table 2, cAMP accumulation, buffer PBS, 0.1% BSA, 100 μM RO 20-1724, 20% serum, 1 hr at RT, value ± spread, read-out: EC50 GLP1R.
Description: Briefly, a 2 μM solution of peptide was prepared, and 4-fold serial dilutions were made. 150 nL of the above titration was then dispensed into an Optiplate384 using an Echo555. […] The HitHunter® cAMP Assay kit calibration curve was prepared following the manufacturer’s protocol (DiscoveRx-90-0075L). 30,000 cells/well were added to the peptides, spun briefly at 500 rpm for 15 s and incubated at RT in the dark for 1 hr. The assay was developed as per the manufacturer’s instructions. cAMP accumulation due to GLP1R agonism or GCGR agonism was measured using an EnVision platereader (PerkinElmer), and calibrated using the cAMP standard curve. Data were analyzed using Assay Data Analyzer (ADA).

The term EC50 denotes the concentration that produces a half-maximal response.

Residues, ends and D or L forms follow the SMILES beside them. Where only a bound is given, the exact number is not on record here.

T1 sequence (P47871 26-477): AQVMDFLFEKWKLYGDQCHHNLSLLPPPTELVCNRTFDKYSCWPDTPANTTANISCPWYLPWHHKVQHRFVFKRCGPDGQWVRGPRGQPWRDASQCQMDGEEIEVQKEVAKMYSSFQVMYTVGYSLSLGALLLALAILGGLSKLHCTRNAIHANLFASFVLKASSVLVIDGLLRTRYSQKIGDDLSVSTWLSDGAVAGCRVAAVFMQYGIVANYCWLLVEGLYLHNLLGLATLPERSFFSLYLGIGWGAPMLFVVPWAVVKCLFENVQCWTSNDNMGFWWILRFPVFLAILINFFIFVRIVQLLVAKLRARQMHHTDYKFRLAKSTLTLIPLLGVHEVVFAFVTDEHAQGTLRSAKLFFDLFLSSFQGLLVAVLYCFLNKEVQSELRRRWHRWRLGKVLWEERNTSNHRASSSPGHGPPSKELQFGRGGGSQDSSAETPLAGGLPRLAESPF

As to `CSCC[C@H](NC(=O)[C@H](CO)NC(=O)[C@H](C)N)C(=O)N[C@@H](Cc1ccccc1)C(=O)N[C@H](C(=O)N[C@@H](Cc1ccccc1)C(=O)N[C@@H](Cc1ccccc1)C(=O)N[C@@H](CO)C(=O)N[C@@H](CC(=O)O)C(=O)N[C@@H](Cc1ccc(O)cc1)C(=O)N[C@@H](CO)C(=O)N[C@@H](CCCCN)C(=O)N[C@@H](Cc1ccc(O)cc1)C(=O)N[C@@H](CC(C)C)C(=O)N[C@@H](CC(=O)O)C(=O)N[C@@H](CO)C(=O)N[C@@H](CCCNC(=N)N)C(=O)N[C@@H](CCCNC(=N)N)C(=O)N[C@@H](C)C(=O)N[C@@H](CCC(N)=O)C(=O)N[C@@H](CC(=O)O)C(=O)N[C@@H](Cc1ccccc1)C(=O)N[C@H](C(=O)N[C@@H](CCC(N)=O)C(=O)N[C@@H](Cc1c[nH]c2ccccc12)C(=O)N[C@@H](CC(C)C)C(=O)N[C@@H](CCSC)C(=O)N[C@@H](CC(C)C)C(=O)N[C@H](C(N)=O)[C@@H](C)O)C(C)C)[C@@H](C)O` [Peptide 15] (H-ASMFTFFSDYSKYLDSRRAQDFVQWLMLT-NH2; N-terminus assumed), in experiment [1], the 50% effective concentration (EC50) is over 20 nM and the “activation of the receptors (in words)” value is “did not activate”. Moreover, the EC50 in experiment [2] was over 200 nM.

Regarding `CSCC[C@H](NC(=O)[C@H](CC(C)C)NC(=O)[C@H](Cc1c[nH]c2ccccc12)NC(=O)[C@H](CCC(N)=O)NC(=O)[C@@H](NC(=O)[C@H](Cc1ccccc1)NC(=O)[C@H](CC(=O)O)NC(=O)[C@H](CCC(N)=O)NC(=O)[C@H](C)NC(=O)[C@H](CCCNC(=N)N)NC(=O)[C@H](CCCNC(=N)N)NC(=O)[C@H](CO)NC(=O)[C@H](CC(=O)O)NC(=O)[C@H](CC(C)C)NC(=O)[C@H](Cc1ccc(O)cc1)NC(=O)[C@H](Cc1ccc(O)cc1)NC(=O)[C@H](Cc1ccc(O)cc1)NC(=O)[C@H](Cc1ccc(O)cc1)NC(=O)[C@H](CC(=O)O)NC(=O)[C@H](Cc1c[nH]cn1)NC(=O)[C@H](CC(C)C)NC(=O)[C@H](Cc1ccccc1)NC(=O)[C@@H](NC(=O)CNC(=O)[C@H](CCC(N)=O)NC(=O)[C@H](CO)NC(=O)[C@@H](N)Cc1c[nH]cn1)[C@@H](C)O)C(C)C)C(=O)N[C@@H](CC(=O)O)C(=O)N[C@H](C(N)=O)[C@@H](C)O` [Peptide 17] (H-HSQGTFLHDYYYYLDSRRAQDFVQWLMDT-NH2), the EC50 is 0.527 ± 0.315 nM in experiment [1] and over 200 nM in experiment [2].

For the compound `CC[C@H](C)[C@H](NC(=O)[C@H](CO)NC(=O)[C@H](CC(=O)O)NC(=O)[C@H](CC(C)C)NC(=O)[C@H](Cc1ccc(O)cc1)NC(=O)[C@H](CCCCN)NC(=O)[C@H](CO)NC(=O)[C@H](Cc1ccc(O)cc1)NC(=O)[C@H](CC(=O)O)NC(=O)[C@H](CO)NC(=O)[C@@H](NC(=O)[C@H](Cc1ccccc1)NC(=O)[C@@H](NC(=O)CNC(=O)[C@H](CCC(N)=O)NC(=O)[C@H](CO)NC(=O)[C@@H](N)Cc1c[nH]cn1)[C@@H](C)O)[C@@H](C)O)C(=O)N[C@@H](CCCNC(=N)N)C(=O)N[C@@H](C)C(=O)N[C@@H](CCC(N)=O)C(=O)N[C@@H](CC(=O)O)C(=O)N[C@@H](Cc1ccccc1)C(=O)N[C@H](C(=O)N[C@@H](CCC(N)=O)C(=O)N[C@@H](Cc1c[nH]c2ccccc12)C(=O)N[C@@H](CC(C)C)C(=O)N[C@@H](CCSC)C(=O)N[C@@H](CC(=O)O)C(=O)N[C@H](C(N)=O)[C@@H](C)O)C(C)C` [Peptide 18] (H-HSQGTFTSDYSKYLDSIRAQDFVQWLMDT-NH2), the EC50 in experiment [1] came out at 0.037 ± 0.011 nM; in experiment [2], 0.056 ± 0.012 nM.

For the compound `CSCC[C@H](NC(=O)[C@H](CC(C)C)NC(=O)[C@H](Cc1c[nH]c2ccccc12)NC(=O)[C@H](CCC(N)=O)NC(=O)[C@@H](NC(=O)[C@H](Cc1ccccc1)NC(=O)[C@H](CC(=O)O)NC(=O)[C@H](CCC(N)=O)NC(=O)[C@H](C)NC(=O)[C@H](CCCNC(=N)N)NC(=O)[C@H](CCCNC(=N)N)NC(=O)[C@H](CO)NC(=O)[C@H](CC(=O)O)NC(=O)[C@H](CC(C)C)NC(=O)[C@H](Cc1ccc(O)cc1)NC(=O)[C@H](CCCCN)NC(=O)[C@H](CO)NC(=O)[C@H](Cc1ccc(O)cc1)NC(=O)[C@H](CC(=O)O)NC(=O)[C@H](CO)NC(=O)[C@@H](NC(=O)[C@H](Cc1ccccc1)NC(=O)[C@@H](NC(=O)[C@H](Cc1ccccc1)NC(=O)[C@H](CCC(N)=O)NC(=O)CNC(=O)[C@H](CC(C)C)NC(=O)[C@H](C)NC(=O)[C@@H](N)CCCCN)[C@@H](C)O)[C@@H](C)O)C(C)C)C(=O)N[C@@H](CC(N)=O)C(=O)N[C@H](C(N)=O)[C@@H](C)O` [Peptide 21] (H-KALGQFTFTSDYSKYLDSRRAQDFVQWLMNT-NH2), the EC50 in experiment [1] was 4.18 ± 1.13 nM; in experiment [2], 14.8 ± 11.4 nM.

Take `CSCC[C@H](NC(=O)[C@H](CC(C)C)NC(=O)[C@H](Cc1c[nH]c2ccccc12)NC(=O)[C@H](CCC(N)=O)NC(=O)[C@@H](NC(=O)[C@H](Cc1ccccc1)NC(=O)[C@H](CC(=O)O)NC(=O)[C@H](CCC(N)=O)NC(=O)[C@H](C)NC(=O)[C@H](CCCNC(=N)N)NC(=O)[C@H](CCCNC(=N)N)NC(=O)[C@H](CO)NC(=O)[C@H](CC(=O)O)NC(=O)[C@H](CC(C)C)NC(=O)[C@H](Cc1c[nH]c2ccccc12)NC(=O)[C@H](Cc1c[nH]cn1)NC(=O)[C@H](CO)NC(=O)[C@H](Cc1ccc(O)cc1)NC(=O)[C@H](CC(=O)O)NC(=O)[C@H](CO)NC(=O)[C@H](Cc1ccccc1)NC(=O)[C@H](Cc1ccccc1)NC(=O)[C@@H](NC(=O)CNC(=O)[C@H](CCC(N)=O)NC(=O)[C@H](CO)NC(=O)[C@@H](N)Cc1c[nH]cn1)[C@@H](C)O)C(C)C)C(=O)N[C@@H](CC(N)=O)C(=O)N[C@H](C(N)=O)[C@@H](C)O` [Peptide 22]: the 50% effective concentration (EC50) in experiment [1] is 0.029 ± 0.001 nM; in experiment [2] it was over 200 nM.

Turning to `CC(C)C[C@H](NC(=O)[C@H](Cc1ccc(O)cc1)NC(=O)[C@H](CCCCN)NC(=O)[C@H](CO)NC(=O)[C@H](Cc1ccc(O)cc1)NC(=O)[C@H](CC(=O)O)NC(=O)[C@H](CO)NC(=O)[C@@H](NC(=O)[C@H](Cc1ccccc1)NC(=O)[C@@H](NC(=O)CNC(=O)[C@H](CCC(N)=O)NC(=O)[C@H](CO)NC(=O)[C@@H](N)Cc1c[nH]cn1)[C@@H](C)O)[C@@H](C)O)C(=O)N[C@@H](CC(=O)O)C(=O)N[C@@H](Cc1c[nH]c2ccccc12)C(=O)N[C@@H](CCCNC(=N)N)C(=O)N[C@@H](CCCNC(=N)N)C(=O)N[C@@H](C)C(=O)N[C@@H](CCC(N)=O)C(=O)N[C@@H](CC(=O)O)C(=O)N[C@@H](Cc1ccccc1)C(=O)N[C@H](C(=O)N[C@@H](CCC(N)=O)C(=O)N[C@@H](Cc1c[nH]c2ccccc12)C(=O)N[C@@H](CC(C)C)C(=O)N[C@@H](CCC(N)=O)C(=O)N[C@@H](CC(N)=O)C(=O)N[C@H](C(N)=O)[C@@H](C)O)C(C)C` [Peptide 23], the EC50 in experiment [1] is 0.019 ± 0.001 nM; in experiment [2], 0.017 ± 0.001 nM.

Take `CC(C)C[C@H](NC(=O)[C@H](Cc1ccc(O)cc1)NC(=O)[C@H](CCCCN)NC(=O)[C@H](CO)NC(=O)[C@H](Cc1ccc(O)cc1)NC(=O)[C@H](CC(=O)O)NC(=O)[C@H](CO)NC(=O)[C@@H](NC(=O)[C@H](Cc1ccccc1)NC(=O)[C@@H](NC(=O)CNC(=O)[C@H](CCC(N)=O)NC(=O)[C@H](CO)NC(=O)[C@@H](N)Cc1c[nH]cn1)[C@@H](C)O)[C@@H](C)O)C(=O)N[C@@H](CC(=O)O)C(=O)N[C@@H](CO)C(=O)N[C@@H](CCCCN)C(=O)N[C@@H](CCCNC(=N)N)C(=O)N[C@@H](C)C(=O)N[C@@H](Cc1c[nH]cn1)C(=O)N[C@@H](CC(=O)O)C(=O)N[C@@H](Cc1ccccc1)C(=O)N[C@H](C(=O)N[C@@H](CCC(N)=O)C(=O)N[C@@H](Cc1c[nH]c2ccccc12)C(=O)N[C@@H](CC(C)C)C(=O)N[C@@H](CC(C)C)C(=O)N[C@@H](CC(N)=O)C(=O)N[C@H](C(N)=O)[C@@H](C)O)C(C)C` [Peptide 24] (H-HSQGTFTSDYSKYLDSKRAHDFVQWLLNT-NH2): the figures for the concentration giving a half-maximal response (EC50) in experiment [1] and in experiment [2] were 0.026 ± 0.001 nM and 0.018 ± 0.001 nM, respectively.

As to `CC[C@H](C)[C@H](NC(=O)[C@H](Cc1c[nH]c2ccccc12)NC(=O)[C@H](Cc1ccccc1)NC(=O)[C@H](CC(=O)O)NC(=O)[C@H](CCC(N)=O)NC(=O)[C@H](C)NC(=O)[C@H](CCCNC(=N)N)NC(=O)[C@H](CCCNC(=N)N)NC(=O)[C@H](CO)NC(=O)[C@H](CC(=O)O)NC(=O)[C@H](CC(C)C)NC(=O)[C@H](Cc1ccc(O)cc1)NC(=O)[C@H](CCCCN)NC(=O)[C@H](CO)NC(=O)[C@H](Cc1ccc(O)cc1)NC(=O)[C@H](CC(=O)O)NC(=O)[C@H](CO)NC(=O)[C@@H](NC(=O)[C@H](Cc1ccccc1)NC(=O)[C@@H](NC(=O)CNC(=O)[C@H](CCC(N)=O)NC(=O)[C@H](CO)NC(=O)[C@@H](N)Cc1c[nH]cn1)[C@@H](C)O)[C@@H](C)O)C(=O)N[C@@H](CC(=O)O)C(=O)N[C@@H](CC(C)C)C(=O)N[C@@H](CCSC)C(=O)N[C@@H](CC(N)=O)C(=O)N[C@H](C(N)=O)[C@@H](C)O` [Peptide 25], the half-maximal effective concentration (EC50) in experiment [1] and in experiment [2] was over 20 nM throughout. Further, the “activation of the receptors (in words)” value in experiment [1] is reported as “did not activate”.

Regarding `CSCC[C@H](NC(=O)[C@H](CO)NC(=O)[C@@H](NC(=O)[C@H](CCSC)NC(=O)[C@@H](NC(=O)[C@H](Cc1ccccc1)NC(=O)[C@H](CC(=O)O)NC(=O)[C@H](CCC(N)=O)NC(=O)[C@H](C)NC(=O)[C@H](CCCNC(=N)N)NC(=O)[C@H](CCCNC(=N)N)NC(=O)[C@H](CO)NC(=O)[C@H](CC(=O)O)NC(=O)[C@H](CC(C)C)NC(=O)[C@H](Cc1ccc(O)cc1)NC(=O)[C@H](CCCCN)NC(=O)[C@H](CO)NC(=O)[C@H](Cc1ccc(O)cc1)NC(=O)[C@H](CC(=O)O)NC(=O)[C@H](CO)NC(=O)[C@@H](NC(=O)[C@H](Cc1ccccc1)NC(=O)[C@@H](NC(=O)CNC(=O)[C@H](CCC(N)=O)NC(=O)[C@H](CO)NC(=O)[C@@H](N)Cc1c[nH]cn1)[C@@H](C)O)[C@@H](C)O)C(C)C)[C@@H](C)O)C(=O)N[C@@H](CC(N)=O)C(=O)N[C@H](C(N)=O)[C@@H](C)O` [Peptide 26], the EC50 is over 200 nM in experiment [1] and 8.96 ± 1.84 nM in experiment [2].
